Measured values as given in the NIST ThermoML archive (doi:10.1016/j.fluid.2015.01.002).

Key:
[1] = 298.15 K; 101.33 kPa; Liquid; Vibrating tube method
[2] = refractive index (Na D-line) (dimensionless); settings: 298.15 K; 101.33 kPa; Liquid; Standard Abbe refractometry
[3] = refractive index (Na D-line) (dimensionless); xn = mol fraction of the nth substance listed; settings: 298.15 K, 101 kPa, Liquid, Standard Abbe refractometry
[4] = xn = mol fraction of the nth substance listed; settings: 298.15 K, 101 kPa, Liquid, Vibrating tube method

CC#N [acetonitrile]
Settings | mass density [kg/m3] | refractive index
[1] | 776.64 | –
[2] | – | 1.34143

COCCO [2-methoxyethan-1-ol] + Cc1ccc(C)cc1
Settings | mass density, [4] [kg/m3] | refractive index, [3]
x2 = 0.0499 | 952.02 | 1.4069
x2 = 0.0999 | 944.39 | 1.4136
x2 = 0.1999 | 930.07 | 1.4253
x2 = 0.3 | 917.28 | 1.4367
x2 = 0.3999 | 905.75 | 1.4462
x2 = 0.5001 | 895.38 | 1.4557
x2 = 0.6 | 885.92 | 1.4641
x2 = 0.6999 | 877.19 | 1.4717
x2 = 0.7999 | 869.23 | 1.4793
x2 = 0.8999 | 862.2 | 1.4862
x2 = 0.9499 | 859.28 | 1.4895

COCCO [2-methoxyethan-1-ol] + Cc1ccccc1
Settings | mass density, [4] [kg/m3] | refractive index, [3]
x2 = 0.05 | 953.61 | 1.4048
x2 = 0.0998 | 947.42 | 1.4113
x2 = 0.1999 | 935.21 | 1.4233
x2 = 0.3001 | 923.65 | 1.434
x2 = 0.4 | 912.84 | 1.4437
x2 = 0.4999 | 902.65 | 1.453
x2 = 0.6 | 893.14 | 1.4616
x2 = 0.7001 | 884.22 | 1.4701
x2 = 0.8 | 875.94 | 1.4782
x2 = 0.9 | 868.48 | 1.486
x2 = 0.9498 | 865.12 | 1.4899

Cc1ccc(C)cc1 [1,4-dimethylbenzene]
Settings | mass density [kg/m3] | refractive index
[1] | 856.78 | –
[2] | – | 1.49281

c1ccccc1 [benzene]
Settings | mass density [kg/m3] | refractive index
[1] | 873.73 | –
[2] | – | 1.49749

COCCO [2-methoxyethan-1-ol]
Settings | mass density [kg/m3] | refractive index
[1] | 959.73 | –
[2] | – | 1.39981

CC#N [acetonitrile] + Cc1ccccc1
Settings | mass density, [4] [kg/m3] | refractive index, [3]
x2 = 0.0499 | 784.94 | 1.3557
x2 = 0.1 | 792.57 | 1.3686
x2 = 0.2 | 806.07 | 1.3917
x2 = 0.3 | 817.61 | 1.412
x2 = 0.4 | 827.52 | 1.4308
x2 = 0.4999 | 835.99 | 1.4457
x2 = 0.6 | 843.26 | 1.458
x2 = 0.6999 | 849.43 | 1.4683
x2 = 0.8001 | 854.74 | 1.4785
x2 = 0.9 | 858.99 | 1.487
x2 = 0.9498 | 860.78 | 1.4907

Cc1ccc(C)cc1 [1,4-dimethylbenzene] + CC#N
Settings | mass density, [4] [kg/m3] | refractive index, [3]
x1 = 0.05 | 785.5 | 1.3575
x1 = 0.1 | 793.4 | 1.3717
x1 = 0.2 | 806.77 | 1.3975
x1 = 0.3 | 817.69 | 1.4181
x1 = 0.4 | 826.78 | 1.4353
x1 = 0.5 | 834.35 | 1.4498
x1 = 0.6 | 840.73 | 1.4642
x1 = 0.7 | 846.09 | 1.4757
x1 = 0.8001 | 850.43 | 1.4835
x1 = 0.9001 | 854.1 | 1.4889
x1 = 0.9503 | 855.52 | 1.4913

COCCO [2-methoxyethan-1-ol] + c1ccccc1
Settings | mass density, [4] [kg/m3] | refractive index, [3]
x2 = 0.05 | 955.11 | 1.4054
x2 = 0.0998 | 950.35 | 1.4105
x2 = 0.2001 | 940.54 | 1.4193
x2 = 0.2998 | 930.95 | 1.4286
x2 = 0.4 | 921.55 | 1.4385
x2 = 0.4999 | 912.55 | 1.4486
x2 = 0.5999 | 903.8 | 1.4586
x2 = 0.7 | 895.3 | 1.4679
x2 = 0.8 | 887.18 | 1.477
x2 = 0.8998 | 879.76 | 1.4864
x2 = 0.95 | 876.36 | 1.4916

CC#N [acetonitrile] + c1ccccc1
Settings | mass density, [4] [kg/m3] | refractive index, [3]
x2 = 0.05 | 784.35 | 1.3523
x2 = 0.1 | 791.68 | 1.3638
x2 = 0.2 | 805.24 | 1.3823
x2 = 0.2998 | 817.45 | 1.402
x2 = 0.4001 | 828.54 | 1.4217
x2 = 0.4999 | 838.46 | 1.4378
x2 = 0.6002 | 847.41 | 1.4531
x2 = 0.7004 | 855.36 | 1.466
x2 = 0.7997 | 862.34 | 1.4789
x2 = 0.9002 | 868.48 | 1.4892
x2 = 0.9506 | 871.14 | 1.4929

CCCCCCCCCCCCCCCC [hexadecane]
Settings | mass density [kg/m3] | refractive index
[1] | 770.3 | –
[2] | – | 1.43225

Cc1ccccc1 [toluene]
Settings | mass density [kg/m3] | refractive index
[1] | 862.34 | –
[2] | – | 1.49367
